In test [1] the target is Adenosine receptor A2b (Homo sapiens) (UniProt P29275). Description: A2B (h) Eurofins-Cerep binding assay. The arrangement: ligand concentration 5 nM. The note with it: filed as antagonist, Compound concentration 10.0 uM.
Test [2] addresses T1, Alpha-2A adrenergic receptor (Homo sapiens) (UniProt P08913).
T1 sequence (whole entry): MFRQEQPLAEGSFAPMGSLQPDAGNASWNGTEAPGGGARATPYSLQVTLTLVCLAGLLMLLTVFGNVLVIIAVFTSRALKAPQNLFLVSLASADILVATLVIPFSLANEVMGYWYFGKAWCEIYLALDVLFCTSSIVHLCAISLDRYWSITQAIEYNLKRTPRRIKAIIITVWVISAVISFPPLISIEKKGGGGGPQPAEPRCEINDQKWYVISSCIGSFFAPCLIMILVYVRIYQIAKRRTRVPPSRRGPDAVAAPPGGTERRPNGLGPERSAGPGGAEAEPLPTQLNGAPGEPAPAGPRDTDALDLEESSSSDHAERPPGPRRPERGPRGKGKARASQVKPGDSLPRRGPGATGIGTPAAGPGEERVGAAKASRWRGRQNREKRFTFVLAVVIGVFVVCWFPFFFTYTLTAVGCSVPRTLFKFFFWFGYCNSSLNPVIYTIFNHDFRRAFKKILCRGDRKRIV
Description: Alpha2A (h) Eurofins-Cerep binding assay. The arrangement: ligand concentration 1 nM. The note with it: filed as antagonist, Compound concentration 10.0 uM.

Test [3] addresses GABA-A receptor; anion channel (Rattus norvegicus) (UniProt O09028+P15431+P18506+P18508+P19969+P20236+P23574+P23576+P28471+P28473+P30191+P62813+P63079+P63138+Q91ZM7+Q9ES14). Description: Cl- channel (GABA-gated) Eurofins-Cerep binding assay. The settings on record: filed as antagonist, Compound concentration 10.0 uM. It counts as protein-complex assay. The arrangement: ligand concentration 3 nM.

Test [4] concerns the target 5-hydroxytryptamine receptor 4 (Homo sapiens) (UniProt Q13639). Description: 5-HT4 e (h) Eurofins-Cerep binding assay. Also noted: ligand concentration 0.3 nM. The settings on record: filed as antagonist, Compound concentration 10.0 uM.
Test [5] concerns the target T2, 5-hydroxytryptamine receptor 3A (Homo sapiens) (UniProt P46098).
T2 sequence (whole entry): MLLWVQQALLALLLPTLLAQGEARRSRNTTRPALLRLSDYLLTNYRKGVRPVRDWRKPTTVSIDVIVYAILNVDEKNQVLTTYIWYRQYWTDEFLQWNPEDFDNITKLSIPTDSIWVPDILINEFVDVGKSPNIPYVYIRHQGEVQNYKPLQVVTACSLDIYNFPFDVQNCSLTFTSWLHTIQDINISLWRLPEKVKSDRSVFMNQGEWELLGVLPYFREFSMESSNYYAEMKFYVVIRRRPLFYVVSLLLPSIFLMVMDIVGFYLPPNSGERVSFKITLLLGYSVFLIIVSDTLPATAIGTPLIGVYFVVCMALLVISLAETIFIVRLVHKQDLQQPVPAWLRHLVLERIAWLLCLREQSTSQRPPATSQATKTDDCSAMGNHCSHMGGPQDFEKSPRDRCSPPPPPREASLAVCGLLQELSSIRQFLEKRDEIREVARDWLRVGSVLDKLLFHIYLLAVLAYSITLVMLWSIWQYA
Put plainly: 5-HT3 (h) Eurofins-Cerep binding assay. The arrangement: ligand concentration 0.5 nM. The settings on record: filed as antagonist, Compound concentration 10.0 uM.

The target of test [6] is Tumor necrosis factor (Homo sapiens) (UniProt P01375). Description: TNF-alpha (h) Eurofins-Cerep binding assay. Also noted: ligand concentration 0.1 nM. The settings on record: filed as agonist, Compound concentration 10.0 uM.
For test [7], the target named is T3, Muscarinic acetylcholine receptor M4 (Homo sapiens) (UniProt P08173).
T3 sequence (whole entry): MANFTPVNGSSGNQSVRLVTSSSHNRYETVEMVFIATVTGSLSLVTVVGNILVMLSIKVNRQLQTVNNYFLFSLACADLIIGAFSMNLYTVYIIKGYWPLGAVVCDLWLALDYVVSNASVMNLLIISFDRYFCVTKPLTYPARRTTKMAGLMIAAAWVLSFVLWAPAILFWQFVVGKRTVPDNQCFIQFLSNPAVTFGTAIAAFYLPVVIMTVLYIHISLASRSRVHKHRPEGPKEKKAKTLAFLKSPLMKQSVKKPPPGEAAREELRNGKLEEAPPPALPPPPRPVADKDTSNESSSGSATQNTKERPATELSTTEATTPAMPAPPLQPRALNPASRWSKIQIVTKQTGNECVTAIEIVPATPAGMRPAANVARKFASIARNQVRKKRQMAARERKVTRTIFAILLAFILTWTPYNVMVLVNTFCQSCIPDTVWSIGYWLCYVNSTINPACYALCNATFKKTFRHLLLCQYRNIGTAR
Put plainly: M4 (h) Eurofins-Cerep binding assay. The note with it: filed as antagonist, Compound concentration 10.0 uM. Also noted: ligand concentration 0.2 nM.

Test [8] has as its target 5-hydroxytryptamine receptor 2B (Homo sapiens) (UniProt P41595). Description: 5-HT2B (h) Eurofins-Cerep binding assay. The arrangement: ligand concentration 0.2 nM. The settings on record: filed as agonist, Compound concentration 10.0 uM.
For test [9], the target named is T4, Alpha-2B adrenergic receptor (Homo sapiens) (UniProt P18089).
T4 sequence (whole entry): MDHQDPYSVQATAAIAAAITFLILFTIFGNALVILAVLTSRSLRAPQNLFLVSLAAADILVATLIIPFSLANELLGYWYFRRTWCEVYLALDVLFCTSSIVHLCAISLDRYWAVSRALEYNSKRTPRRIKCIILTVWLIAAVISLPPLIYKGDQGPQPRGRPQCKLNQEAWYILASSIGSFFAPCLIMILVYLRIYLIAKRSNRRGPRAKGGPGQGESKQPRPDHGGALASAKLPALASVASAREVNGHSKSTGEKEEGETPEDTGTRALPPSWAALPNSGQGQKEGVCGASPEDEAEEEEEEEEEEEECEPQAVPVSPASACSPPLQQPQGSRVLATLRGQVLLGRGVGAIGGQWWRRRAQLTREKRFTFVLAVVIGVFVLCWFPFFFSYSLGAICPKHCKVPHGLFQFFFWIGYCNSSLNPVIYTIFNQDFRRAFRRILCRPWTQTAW
Description: Alpha2B (h) Eurofins-Cerep binding assay. Also noted: ligand concentration 2.5 nM. The note with it: filed as antagonist, Compound concentration 10.0 uM.

The target in test [10] is Peroxisome proliferator-activated receptor gamma (Homo sapiens) (UniProt P37231). Put plainly: PPARgamma (h) Eurofins-Cerep binding assay. The arrangement: ligand concentration 5 nM. The settings on record: filed as agonist, Compound concentration 10.0 uM.
Test [11] addresses Calcitonin-gene-related peptide receptor, CALCRL/RAMP1 (Homo sapiens) (UniProt O60894+Q16602). Put plainly: CGRP (h) Eurofins-Cerep binding assay. The arrangement: ligand concentration 0.03 nM. The note with it: filed as agonist, Compound concentration 10.0 uM. The class given is protein-complex assay.
For test [12], the target named is Type-2 angiotensin II receptor (Homo sapiens) (UniProt P50052). Description: AT2 (h) Eurofins-Cerep binding assay. The note with it: filed as agonist, Compound concentration 10.0 uM. The arrangement: ligand concentration 0.01 nM.
For test [13], the target named is Cholecystokinin receptor type A (Homo sapiens) (UniProt P32238). Put plainly: CCK1 (CCKA) (h) Eurofins-Cerep binding assay. The arrangement: ligand concentration 0.08 nM. The note with it: filed as agonist, Compound concentration 10.0 uM.
Test [14] has as its target Substance-P receptor (Homo sapiens) (UniProt P25103). Description: NK1 (h) Eurofins-Cerep binding assay. The arrangement: ligand concentration 0.05 nM. The note with it: filed as agonist, Compound concentration 10.0 uM.
The target of test [15] is Sodium/potassium-transporting ATPase (Sus scrofa) (UniProt P05027+P05024+D2WKD8+D2WKD7+F1ST41). Put plainly: ATPase (Na+/K+) Eurofins-Cerep enzyme and uptake assay. The class given is protein-complex assay. The note with it: Compound concentration 10.0 uM.
In test [16] the target is Sodium-dependent noradrenaline transporter (Homo sapiens) (UniProt P23975). Put plainly: norepinephrine transporter (h) Eurofins-Cerep binding assay. The arrangement: ligand concentration 1 nM. The settings on record: filed as antagonist, Compound concentration 10.0 uM.
Test [17] concerns the target Beta-2 adrenergic receptor (Homo sapiens) (UniProt P07550). Description: Beta2 (h) Eurofins-Cerep binding assay. Also noted: ligand concentration 0.3 nM. The note with it: filed as antagonist, Compound concentration 10.0 uM.
The species entered for another test is Rattus norvegicus. Description: SKCa channel Eurofins-Cerep binding assay. Also noted: ligand concentration 0.007 nM. The settings on record: filed as antagonist, Compound concentration 10.0 uM.
For test [18], the target named is Muscarinic acetylcholine receptor M3 (Homo sapiens) (UniProt P20309). Description: M3 (h) Eurofins-Cerep binding assay. The arrangement: ligand concentration 0.2 nM. The note with it: filed as antagonist, Compound concentration 10.0 uM.
Muscarinic acetylcholine receptor M3 (Homo sapiens), sequence (P20309 whole entry, looked up): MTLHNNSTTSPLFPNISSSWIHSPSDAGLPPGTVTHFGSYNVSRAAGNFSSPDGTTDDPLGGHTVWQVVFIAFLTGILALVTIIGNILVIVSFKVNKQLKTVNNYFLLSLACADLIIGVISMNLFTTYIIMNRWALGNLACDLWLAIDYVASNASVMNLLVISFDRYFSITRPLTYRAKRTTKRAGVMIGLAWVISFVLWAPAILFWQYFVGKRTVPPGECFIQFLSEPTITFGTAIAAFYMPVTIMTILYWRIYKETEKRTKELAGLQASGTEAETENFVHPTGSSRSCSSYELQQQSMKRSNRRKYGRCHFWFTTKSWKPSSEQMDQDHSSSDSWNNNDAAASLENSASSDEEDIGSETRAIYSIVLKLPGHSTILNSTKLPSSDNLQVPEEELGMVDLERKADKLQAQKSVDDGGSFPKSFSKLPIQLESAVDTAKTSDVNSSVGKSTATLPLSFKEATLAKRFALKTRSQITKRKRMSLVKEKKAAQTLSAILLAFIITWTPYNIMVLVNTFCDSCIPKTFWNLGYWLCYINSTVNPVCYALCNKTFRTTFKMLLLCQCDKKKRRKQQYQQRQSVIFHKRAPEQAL

Substance-P receptor (Homo sapiens), sequence (P25103 whole entry): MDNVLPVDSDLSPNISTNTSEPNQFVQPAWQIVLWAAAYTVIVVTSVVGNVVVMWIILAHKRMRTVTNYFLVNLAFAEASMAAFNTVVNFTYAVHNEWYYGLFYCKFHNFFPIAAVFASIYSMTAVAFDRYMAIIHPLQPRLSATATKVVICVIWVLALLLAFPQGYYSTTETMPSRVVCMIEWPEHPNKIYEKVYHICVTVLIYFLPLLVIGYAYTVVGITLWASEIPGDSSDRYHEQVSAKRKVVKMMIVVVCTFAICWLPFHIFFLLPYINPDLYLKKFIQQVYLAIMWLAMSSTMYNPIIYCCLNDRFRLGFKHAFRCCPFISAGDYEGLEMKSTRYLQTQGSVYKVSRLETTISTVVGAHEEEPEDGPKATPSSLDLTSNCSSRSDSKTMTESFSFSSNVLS
Peroxisome proliferator-activated receptor gamma (Homo sapiens), sequence (P37231 whole entry): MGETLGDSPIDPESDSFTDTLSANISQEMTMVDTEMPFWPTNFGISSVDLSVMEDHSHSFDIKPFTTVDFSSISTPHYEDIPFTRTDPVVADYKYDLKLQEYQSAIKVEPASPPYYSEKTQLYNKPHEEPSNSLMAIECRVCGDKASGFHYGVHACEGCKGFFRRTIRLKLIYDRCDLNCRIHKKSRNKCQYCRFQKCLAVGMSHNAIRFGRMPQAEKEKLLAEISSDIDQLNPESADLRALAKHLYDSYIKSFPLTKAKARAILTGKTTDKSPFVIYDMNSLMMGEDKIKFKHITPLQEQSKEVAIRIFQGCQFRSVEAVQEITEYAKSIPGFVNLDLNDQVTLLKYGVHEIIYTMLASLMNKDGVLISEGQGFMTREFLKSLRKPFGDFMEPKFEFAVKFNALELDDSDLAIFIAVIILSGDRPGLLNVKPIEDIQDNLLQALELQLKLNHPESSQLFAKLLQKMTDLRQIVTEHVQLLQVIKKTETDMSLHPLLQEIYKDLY
5-hydroxytryptamine receptor 2B (Homo sapiens), sequence (P41595 whole entry): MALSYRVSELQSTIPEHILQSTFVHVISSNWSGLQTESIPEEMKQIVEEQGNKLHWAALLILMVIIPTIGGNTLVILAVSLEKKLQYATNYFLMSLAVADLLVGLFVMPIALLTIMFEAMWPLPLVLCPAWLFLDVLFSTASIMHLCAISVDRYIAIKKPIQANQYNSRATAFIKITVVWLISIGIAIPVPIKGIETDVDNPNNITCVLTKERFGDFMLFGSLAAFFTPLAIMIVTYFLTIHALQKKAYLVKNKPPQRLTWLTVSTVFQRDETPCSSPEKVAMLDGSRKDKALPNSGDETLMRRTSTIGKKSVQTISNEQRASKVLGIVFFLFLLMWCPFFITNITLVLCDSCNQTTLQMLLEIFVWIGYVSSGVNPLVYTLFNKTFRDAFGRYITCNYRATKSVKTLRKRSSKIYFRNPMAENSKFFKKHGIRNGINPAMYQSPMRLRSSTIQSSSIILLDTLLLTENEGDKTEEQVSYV
Tumor necrosis factor (Homo sapiens), sequence (P01375 whole entry): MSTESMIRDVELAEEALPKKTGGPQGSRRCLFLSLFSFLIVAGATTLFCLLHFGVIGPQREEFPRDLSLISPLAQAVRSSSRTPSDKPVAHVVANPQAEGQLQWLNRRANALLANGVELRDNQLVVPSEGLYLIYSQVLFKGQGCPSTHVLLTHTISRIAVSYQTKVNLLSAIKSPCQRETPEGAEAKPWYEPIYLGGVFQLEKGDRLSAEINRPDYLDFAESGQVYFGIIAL
Sodium-dependent noradrenaline transporter (Homo sapiens), sequence (P23975 whole entry): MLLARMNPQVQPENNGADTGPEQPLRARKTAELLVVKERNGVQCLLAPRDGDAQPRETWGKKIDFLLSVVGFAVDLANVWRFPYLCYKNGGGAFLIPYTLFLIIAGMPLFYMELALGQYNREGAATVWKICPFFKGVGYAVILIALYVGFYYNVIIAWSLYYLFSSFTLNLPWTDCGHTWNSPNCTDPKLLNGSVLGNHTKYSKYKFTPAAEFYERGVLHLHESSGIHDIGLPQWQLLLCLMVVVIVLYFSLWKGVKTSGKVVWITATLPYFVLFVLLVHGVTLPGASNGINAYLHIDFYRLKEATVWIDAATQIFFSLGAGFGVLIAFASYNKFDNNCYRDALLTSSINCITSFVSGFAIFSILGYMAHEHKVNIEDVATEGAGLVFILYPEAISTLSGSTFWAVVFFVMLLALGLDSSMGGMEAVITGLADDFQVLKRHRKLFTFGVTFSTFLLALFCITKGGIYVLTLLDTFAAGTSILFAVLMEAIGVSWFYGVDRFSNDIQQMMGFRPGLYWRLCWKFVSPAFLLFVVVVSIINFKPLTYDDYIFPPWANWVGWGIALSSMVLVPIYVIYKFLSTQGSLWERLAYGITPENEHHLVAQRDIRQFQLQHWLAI
Type-2 angiotensin II receptor (Homo sapiens), sequence (P50052 whole entry): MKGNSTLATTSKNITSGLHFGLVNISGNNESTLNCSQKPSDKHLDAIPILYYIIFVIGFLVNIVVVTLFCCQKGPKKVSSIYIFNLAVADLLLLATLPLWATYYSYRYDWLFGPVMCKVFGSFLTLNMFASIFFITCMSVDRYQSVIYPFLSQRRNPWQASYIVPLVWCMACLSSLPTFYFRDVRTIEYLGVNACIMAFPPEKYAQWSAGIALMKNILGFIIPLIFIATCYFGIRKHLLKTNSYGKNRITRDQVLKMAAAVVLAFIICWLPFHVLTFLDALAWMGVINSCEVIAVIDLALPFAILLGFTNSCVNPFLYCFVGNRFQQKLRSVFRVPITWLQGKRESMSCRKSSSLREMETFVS
Adenosine receptor A2b (Homo sapiens), sequence (P29275 whole entry): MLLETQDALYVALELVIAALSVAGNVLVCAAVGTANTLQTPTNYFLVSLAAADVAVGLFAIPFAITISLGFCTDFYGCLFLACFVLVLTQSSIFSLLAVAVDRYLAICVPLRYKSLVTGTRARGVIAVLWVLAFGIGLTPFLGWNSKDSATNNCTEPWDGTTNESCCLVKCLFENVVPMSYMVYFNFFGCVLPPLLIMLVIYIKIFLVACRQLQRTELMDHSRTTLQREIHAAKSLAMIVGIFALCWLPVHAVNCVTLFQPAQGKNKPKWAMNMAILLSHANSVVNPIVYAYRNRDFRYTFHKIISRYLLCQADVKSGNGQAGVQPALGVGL
5-hydroxytryptamine receptor 4 (Homo sapiens), sequence (Q13639 whole entry): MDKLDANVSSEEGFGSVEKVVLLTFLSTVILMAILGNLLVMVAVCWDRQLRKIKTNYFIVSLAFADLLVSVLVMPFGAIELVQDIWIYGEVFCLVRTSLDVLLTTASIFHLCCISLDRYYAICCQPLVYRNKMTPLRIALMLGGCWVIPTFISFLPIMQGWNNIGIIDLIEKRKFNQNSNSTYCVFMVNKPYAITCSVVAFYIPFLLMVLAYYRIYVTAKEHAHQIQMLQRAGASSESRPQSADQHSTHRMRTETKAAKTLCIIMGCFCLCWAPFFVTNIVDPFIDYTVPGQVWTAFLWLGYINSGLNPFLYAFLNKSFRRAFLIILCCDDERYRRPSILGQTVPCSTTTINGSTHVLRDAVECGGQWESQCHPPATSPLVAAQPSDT
Beta-2 adrenergic receptor (Homo sapiens), sequence (P07550 whole entry, looked up): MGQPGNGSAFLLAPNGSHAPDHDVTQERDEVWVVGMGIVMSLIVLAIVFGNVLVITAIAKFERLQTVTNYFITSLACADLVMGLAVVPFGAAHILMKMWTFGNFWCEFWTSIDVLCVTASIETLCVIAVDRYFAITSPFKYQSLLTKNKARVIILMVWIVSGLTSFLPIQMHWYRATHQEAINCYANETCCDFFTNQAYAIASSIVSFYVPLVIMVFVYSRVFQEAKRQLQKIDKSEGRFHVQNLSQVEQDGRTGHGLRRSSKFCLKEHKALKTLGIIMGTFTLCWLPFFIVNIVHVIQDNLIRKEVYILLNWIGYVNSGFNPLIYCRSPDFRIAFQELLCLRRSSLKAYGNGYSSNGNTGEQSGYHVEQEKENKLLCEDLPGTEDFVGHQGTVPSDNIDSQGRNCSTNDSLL
Cholecystokinin receptor type A (Homo sapiens), sequence (P32238 whole entry): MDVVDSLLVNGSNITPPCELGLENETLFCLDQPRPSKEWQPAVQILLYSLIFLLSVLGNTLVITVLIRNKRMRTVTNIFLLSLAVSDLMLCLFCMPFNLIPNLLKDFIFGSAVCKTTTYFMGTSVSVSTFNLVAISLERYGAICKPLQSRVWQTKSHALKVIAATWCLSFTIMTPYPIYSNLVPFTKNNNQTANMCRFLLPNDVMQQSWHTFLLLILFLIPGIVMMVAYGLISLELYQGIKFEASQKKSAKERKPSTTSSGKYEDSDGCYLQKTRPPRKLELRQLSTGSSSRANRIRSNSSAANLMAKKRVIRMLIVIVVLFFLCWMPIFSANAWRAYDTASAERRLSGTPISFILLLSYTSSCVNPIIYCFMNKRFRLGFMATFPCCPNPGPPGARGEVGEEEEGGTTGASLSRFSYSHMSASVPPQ

As to `CN(C)CC#Cc1ccc(OCCCc2sc(N3CCc4cccc(C(=O)Nc5nc6ccccc6s5)c4C3)nc2C(=O)O)c(F)c1` [A-1155463], the % Inhibition of Control Specific Binding (Mean n=2) in test [1] was 32.8%; in test [2], 12.1%; in test [3], 9.9%; in test [4] it was 6.7%; in test [5], 2%; in test [6] it was -6.3%. Further, the % Inhibition of Control Specific Binding (Mean n=2) was 13.8% in test [7]; -46.8% in test [8]; -2.5% in test [9]; 99.1% in test [10]; -6.8% in test [11]; 1.1% in test [12]. The % Inhibition of Control Specific Binding (Mean n=2) in test [13] was 98.9%; in [14] it was 3.3%; in test [16], 20.9%; in test [17], -7%; in the test listed under Rattus norvegicus it was -3.7%; in [18], 17.4%. This compound returned a % Inhibition of Control Values (Mean n=2) in test [15] of 2%.
As for `O=C(Nc1nc2ccccc2s1)c1cccc2c1CN(c1nc(C(=O)O)c(CCOc3ccc(-n4ncc5cncnc54)cc3)s1)CC2` [A-1107969], the % Inhibition of Control Specific Binding (Mean n=2) is -14.8% in [1]; 1.9% in [2]; 11.2% in test [3]; -4% in test [4]; -5.7% in test [5]; -1.7% in [6]. In addition, the % Inhibition of Control Specific Binding (Mean n=2) in test [7] is 8.6%; in test [8], -44.2%; in test [9], -17.8%; in test [10] it was 98.2%; in [11] it was -9.4%; in test [12], 1.5%. Besides, the % Inhibition of Control Specific Binding (Mean n=2) was 68.9% in [13]; 8.7% in [14]; -4% in [16]; -6.9% in [17]; -12.2% in the test listed under Rattus norvegicus; -4.4% in test [18]. The same compound displayed a % Inhibition of Control Values (Mean n=2) in [15] of 12.6%.

The record behind these values is ChEMBL document CHEMBL4507311, “Data for DCP probe A-1155463” (2021).
